Test results published in patent publication US6410792B1, “Amide derivatives and methods for using the same as selective neuropeptide Y receptor antagonists” (Bayer Corporation, priority 1997, dated 2002).

Legend:
Human NPY1 receptor = target: T1, Human NPY1 receptor (Homo sapiens, UniProt P25929); experiment: Human NPY1 receptor binding assay ([125I]PYY, SK-N-MC cells); conditions: [125I]PYY, SK-N-MC cells; read-out: hNPYI IC50
T1 construct: host or cells: SK-N-MC cells
T1 sequence (P25929 1-384): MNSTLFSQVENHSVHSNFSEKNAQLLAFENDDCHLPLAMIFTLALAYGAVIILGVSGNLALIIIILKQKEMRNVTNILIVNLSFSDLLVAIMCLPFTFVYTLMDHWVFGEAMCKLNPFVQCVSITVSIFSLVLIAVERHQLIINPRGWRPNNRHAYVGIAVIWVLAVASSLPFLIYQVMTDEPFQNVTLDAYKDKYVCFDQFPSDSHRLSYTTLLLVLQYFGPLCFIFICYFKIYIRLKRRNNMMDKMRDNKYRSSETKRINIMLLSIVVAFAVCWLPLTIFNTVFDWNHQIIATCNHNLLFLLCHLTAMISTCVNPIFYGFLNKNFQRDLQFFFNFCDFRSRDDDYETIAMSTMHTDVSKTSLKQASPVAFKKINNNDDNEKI
How it was run: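 Confluent SK-N-MC cells preincubated 30 min at room temperature in serum-free DMEM/25 mM HEPES pH 7.3 with BSA, bacitracin and PMSF, then incubated 3 h at room temperature with compound and ~50 pM [125I]PYY. Nonspecific binding defined with 1 μM NPY; bound radioactivity counted after Triton X-100 lysis.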

Y2 receptor = target: T2, Y2 receptor (Homo sapiens, UniProt P49146); experiment: Y2 receptor binding assay ([125I]PYY, membrane protein); conditions: [125I]PYY, membrane protein; read-out: hNPY2 IC50
T2 sequence (P49146 1-381): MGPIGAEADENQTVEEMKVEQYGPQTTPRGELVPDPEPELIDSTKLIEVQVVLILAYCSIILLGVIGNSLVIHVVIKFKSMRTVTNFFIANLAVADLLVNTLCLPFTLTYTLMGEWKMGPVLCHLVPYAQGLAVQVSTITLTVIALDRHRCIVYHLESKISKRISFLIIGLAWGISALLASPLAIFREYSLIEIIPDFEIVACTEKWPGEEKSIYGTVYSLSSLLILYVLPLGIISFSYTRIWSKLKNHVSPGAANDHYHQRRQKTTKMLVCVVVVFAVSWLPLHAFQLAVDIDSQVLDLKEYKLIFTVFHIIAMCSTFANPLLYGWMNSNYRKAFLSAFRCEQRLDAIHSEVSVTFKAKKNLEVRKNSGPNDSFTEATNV
How it was run: (§1)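 Filtration binding with membrane protein and drug dilution, 2 h at room temperature with mixing, radioactivity counted by gamma or scintillation. Y2: 25 pM [125I]PYY in Krebs-Ringer bicarbonate pH 7.4 with 0.01% BSA, nonspecific by 1 μM NPY. Y4/PP1: 50 pM [125I]hPP in HEPES-buffered saline pH 7.4 with protease inhibitors and 0.3% BSA, nonspecific by 1 μM hPP.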

human Y4/PP1 receptor = human Y4/PP1 receptor (Homo sapiens, UniProt P50391); experiment: Human Y4/PP1 receptor binding assay ([125I]human PP, membrane protein); conditions: [125I]human PP, membrane protein; read-out: hNPY4 IC50
human Y4/PP1 receptor, sequence (P50391 whole entry): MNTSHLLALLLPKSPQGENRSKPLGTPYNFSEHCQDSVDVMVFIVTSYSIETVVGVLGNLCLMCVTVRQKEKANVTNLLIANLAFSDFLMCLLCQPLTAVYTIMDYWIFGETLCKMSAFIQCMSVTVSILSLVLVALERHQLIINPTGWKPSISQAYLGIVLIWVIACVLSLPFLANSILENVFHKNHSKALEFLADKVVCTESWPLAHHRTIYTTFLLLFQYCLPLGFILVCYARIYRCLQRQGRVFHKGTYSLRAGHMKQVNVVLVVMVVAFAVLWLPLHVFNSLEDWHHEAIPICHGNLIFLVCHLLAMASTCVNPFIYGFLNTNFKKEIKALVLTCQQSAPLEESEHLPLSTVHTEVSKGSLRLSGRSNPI
How it was run: as §1

Human NPY5 receptor = target: T3, Human NPY5 receptor (Homo sapiens, UniProt Q15761); experiment: Human NPY5 receptor binding assay ([125I]PYY, membrane protein); conditions: [125I]PYY, read-out: hNPY5 IC50
T3 sequence (Q15761 1-445): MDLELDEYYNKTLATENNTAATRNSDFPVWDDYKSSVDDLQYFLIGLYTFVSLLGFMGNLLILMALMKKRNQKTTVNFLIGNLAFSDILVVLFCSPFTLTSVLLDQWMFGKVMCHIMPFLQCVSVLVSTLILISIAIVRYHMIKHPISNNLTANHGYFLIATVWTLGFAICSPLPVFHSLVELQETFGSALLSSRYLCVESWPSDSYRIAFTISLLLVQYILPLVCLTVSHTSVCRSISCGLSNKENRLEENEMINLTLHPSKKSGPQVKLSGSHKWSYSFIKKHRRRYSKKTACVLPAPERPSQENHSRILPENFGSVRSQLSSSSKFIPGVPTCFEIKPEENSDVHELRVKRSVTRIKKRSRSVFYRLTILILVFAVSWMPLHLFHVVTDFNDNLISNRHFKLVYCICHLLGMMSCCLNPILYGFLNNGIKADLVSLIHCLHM
How it was run: (§2)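 Membrane protein was incubated with 75-100 pM porcine [125I]PYY and test compound for 2 hours at room temperature with constant mixing in pH 7.4 Tris buffer containing NaCl, KCl, CaCl2, MgSO4, 0.1% BSA and bacitracin. Nonspecific binding was defined with 1 μM PYY. Bound radioactivity was counted after filtration.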

Rat NPY5 receptor [1] = target: T4, Rat NPY5 receptor (Rattus norvegicus, UniProt Q63634); experiment: Rat NPY5 receptor binding assay ([125I]PYY, membrane protein); conditions: [125I]PYY, read-out: rNPY5 IC50
T4 sequence (Q63634 1-445): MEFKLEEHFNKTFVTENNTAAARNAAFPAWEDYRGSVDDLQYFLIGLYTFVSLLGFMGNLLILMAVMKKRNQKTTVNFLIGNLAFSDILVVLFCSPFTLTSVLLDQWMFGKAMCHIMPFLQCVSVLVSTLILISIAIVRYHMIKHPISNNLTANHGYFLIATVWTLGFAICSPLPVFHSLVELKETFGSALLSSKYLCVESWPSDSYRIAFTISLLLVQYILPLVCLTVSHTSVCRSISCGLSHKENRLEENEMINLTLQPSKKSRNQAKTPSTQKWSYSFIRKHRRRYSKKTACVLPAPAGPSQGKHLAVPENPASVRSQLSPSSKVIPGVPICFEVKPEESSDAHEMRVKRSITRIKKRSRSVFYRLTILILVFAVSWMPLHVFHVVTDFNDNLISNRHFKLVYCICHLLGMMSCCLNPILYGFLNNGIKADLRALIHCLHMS
How it was run: as §2

Rat NPY5 receptor [2] = target: T4, Rat NPY5 receptor; experiment: Rat NPY5 cyclase assay (in vitro functional assay, forskolin-stimulated adenylate cyclase, cAMP); format: cell-based; conditions: 10 μM, percentage of forskolin-stimulated adenylate cyclase; for activity at 10 µM: 20 min, read-out: rNPY5 % FSAC (10 μM)
Protocol: D. Rat NYP5 Cyclase Assay (In Vitro Functional Assay)
Cells stably expressing the rat NPY5 receptor are resuspended in serum-free DMEM containing 10 mM HEPES (pH 7.4) and 1 mM isobutylmethylxanthine (IBMX). […] forskolin and drug dilution are then added to the cells. After a 20 minute incubation of the samples at 37° C, the assay is stopped by placing the samples in boiling water for 3 minutes. The cAMP produced in each sample is quantitated with a radioimmunoassay kit (NEN DuPont). Data are expressed as a percentage of forskolin-stimulated adenylate cyclase.

| IC50 (Human NPY1 receptor) [nM] | IC50 (Y2 receptor) [nM] | IC50 (human Y4/PP1 receptor) [nM] | IC50 (Human NPY5 receptor) [nM] | IC50 (Rat NPY5 receptor [1]) [nM] | activity at 10 µM (Rat NPY5 receptor [2]) [%] | melting point [°C] | rNPY5 % FSAC (10 μM) (Rat NPY5 receptor [2]) [%] | Structure (SMILES) |
| --- | --- | --- | --- | --- | --- | --- | --- | --- |
| > 5000 | > 5000 | > 5000 | 63 | 50 | 99 | 116 to 117 | – | CCCc1ccc(NC(=O)CN2CCC(n3c(=O)[nH]c4ccccc43)CC2)cc1 [Compound 253, 2-[4-(2-Oxo-2,3-dihydro-benzoimidazol-1-yl)-piperidin-1-yl]-N-(4-propyl-phenyl)-acetamide] |
| – | > 5000 | > 5000 | 4 | 3 | 97 | 215 to 216 | – | Cl.O=C(CN1CCC(n2c(=O)[nH]c3ccccc32)CC1)Nc1ccc(C(=O)c2ccccc2)cc1 [Compound 263, N-(4-Benzoyl-phenyl)-2-[4-(2-oxo-2,3-dihydro-benzoimidazol-1-yl)-piperidin-1-yl]-acetamide; hydrochloride] |
| > 5000 | > 5000 | > 5000 | 4 | – | 92 | 130 to 132 | – | O=C(CN1CCC(n2c(=O)[nH]c3ccccc32)CC1)Nc1ccc(C2CCCCC2)cc1 [Compound 251, N-(4-Cyclohexyl-phenyl)-2-[4-(2-oxo-2,3-dihydrobenzoimidazol-1-yl)-piperidin-1-yl]-acetamide] |
| > 5000 | > 5000 | > 5000 | 38 | 19 | 101 | 105 to 110 | – | CC(=O)NC1CCN(CC(=O)Nc2ccc(C3CCCCC3)cc2)C1 (stereo not drawn) [Compound 290, 2-(3-Acetylamino-pyrrolidin-1-yl)-N-(4-cyclohexyl-phenyl)-acetamide] |
| > 5000 | > 5000 | > 5000 | – | – | 90 | 181 to 182 | – | Cl.O=C(CN1CCC(n2c(=O)[nH]c3ccccc32)CC1)NCCc1ccccc1 [Compound 280, 2-[4-(2-Oxo-2,3-dihydro-benzoimidazol-1-yl)-piperidin-1-yl]-N-phenethyl-acetamide; hydrochloride] |
| > 5000 | > 5000 | > 5000 | 42 | 19 | 103 | 180 to 181 | – | O=C(CN1CCC(n2c(=O)[nH]c3ccccc32)CC1)Nc1ccc(-c2ccccc2)cc1 [Compound 275, N-Biphenyl-4-yl-2-[4-(2-oxo-2,3-dihydro-benzoimidazol-1-yl)-piperidin-1-yl]-acetamide] |
| – | – | – | 0.47 | 0.34 | 95 | 258 | – | Cl.O=C(CN1CCC(n2c(=O)[nH]c3ccccc32)CC1)Nc1ccc2c(c1)-c1ccccc1C2=O [Compound 311, 2-[4-(2-Oxo-2,3-dihydro-benzoimidazol-1-yl)-piperidin-1-yl]-N-(9-oxo-9H-fluoren-3-yl)-acetamide; hydrochloride] |
| > 5000 | > 5000 | > 5000 | 110 | – | 88 | 133 to 134 | – | CC(C)c1ccc(NC(=O)CN2CCC(n3c(=O)[nH]c4ccccc43)CC2)cc1 [Compound 257, N-(4-Isopropyl-phenyl)-2-[4-(2-oxo-2,3-dihydro-benzoimidazol-1-yl)-piperidin-1-yl]-acetamide] |
| > 5000 | > 5000 | > 5000 | 13 | 13 | 90 | 150 | – | Cl.N#CC(c1ccccc1)C1CCN(CC(=O)Nc2ccc(C3CCCCC3)cc2)CC1 (stereo not drawn) [Compound 300, 2-[4-(Cyano-phenyl-methyl)-piperidin-1-yl]-N-(4-cyclohexyl-phenyl)-acetamide; hydrochloride] |
| > 5000 | > 5000 | > 5000 | 120 | – | 92 | 128 to 129 | – | CCCCCCc1ccc(NC(=O)CN2CCC(n3c(=O)[nH]c4ccccc43)CC2)cc1 [Compound 256, N-(4-Hexyl-phenyl)-2-[4-(2-oxo-2,3-dihydro-benzoimidazol-1-yl)-piperidin-1-yl]-acetamide] |
| > 5000 | > 5000 | > 5000 | 74 | – | 95 | 127 to 128 | – | CCCCCc1ccc(NC(=O)CN2CCC(n3c(=O)[nH]c4ccccc43)CC2)cc1 [Compound 255, 2-[4-(2-Oxo-2,3-dihydro-benzoimidazol-1-yl)-piperidin-1-yl]-N-(4-pentyl-phenyl)-acetamide] |
| > 5000 | > 5000 | > 5000 | 43 | – | 103 | 130 to 131 | – | CCCCc1ccc(NC(=O)CN2CCC(n3c(=O)[nH]c4ccccc43)CC2)cc1 [Compound 254, N-(4-Butyl-phenyl)-2-[4-(2-oxo-2,3-dihydro-benzoimidazol-1-yl)-piperidin-1-yl]-acetamide] |
| – | – | – | 110 | 60 | – | 289 | 101 | Cl.O=C(CN1CCC(n2c(=O)[nH]c3ccccc32)CC1)Nc1ccc(-c2ccc(F)cc2)cc1 [Compound 327, N-(4′-Fluoro-biphenyl-4-yl)-2-[4-(2-oxo-2,3-dihydro-benzoimidazol-1-yl)-piperidin-1-yl]-acetamide; hydrochloride] |

| Structure (SMILES) | IC50 (Human NPY1 receptor) [nM] | IC50 (Y2 receptor) [nM] | IC50 (human Y4/PP1 receptor) [nM] | IC50 (Human NPY5 receptor) [nM] | IC50 (Rat NPY5 receptor [1]) [nM] | activity at 10 µM (Rat NPY5 receptor [2]) [%] | melting point [°C] | rNPY5 % FSAC (10 μM) (Rat NPY5 receptor [2]) [%] |
| --- | --- | --- | --- | --- | --- | --- | --- | --- |
| CC(=O)NC1CCN(CC(=O)Nc2ccc(C(=O)c3ccccc3)cc2)C1.O=C(O)C(=O)O (stereo not drawn) [Compound 304, 2-(3-Acetylamino-pyrrolidin-1-yl)-N-(4-benzoyl-phenyl)-acetamide; compound with oxalic acid] | > 5000 | > 5000 | > 5000 | 150 | 180 | 85 | 100 | – |
